Assay results reported in patent publication US6703388B2, “Nitrogen-containing tricyclic compounds and drugs containing the same” (Eisai Co., Ltd., priority 1996, dated 2004).
Where two headings read alike, the source gives them in different places.

Experiments:
RBL-2H3 cells = assay: Inhibition of serotonin liberation from IgE-sensitized RBL-2H3 cells after antigen stimulation; format: cell-based, rat; conditions: Rattus norvegicus; [3H]-serotonin release, IgE-sensitized RBL-2H3 cells, antigen stimulation; read-out: IC50 (μM) in serotonin liberation from RBL-2H3 cells
Description: IgE-sensitized RBL-2H3 cells (i.e., a cell line originating in rat cells) release and produce not only histamine and serotonin but also cytokines such as TNF α and prostaglandins which are inflammatory mediators after stimulation with IgE sepecific antibody. In this experimental system, inhibitory effects on various mediators release were examined by using serotonin as an indication.
The cells were beforehand labeled with [^3H]-labeled serotonin and, at the same time, sensitized with the IgE antibody. After incubating with the compounds of the present invention, the cells were stimulated with the specific antigen. Then the inhibitory activity of each compound was calculated from the amount of the [^3H]-labeled serotonin thus liberated into the medium and the amount of [^3H]-labeled serotonin liberated when no compound of the present invention was added.

human basophils = assay: Inhibition of mediator (histamine, peptide leukotriene) liberation from human basophils stimulated with mite antigen; format: cell-based; conditions: enzyme immunoassay
Procedure: 6 ml of 6% dextran (for separating leukocytes, having a high molecular weight) was added to 20 ml of heparinized blood. After stirring well, the resulting mixture was allowed to stand at 37° C. for 30 min and thus erythrocytes were precipitated. The upper layer was taken up and phosphate buffered saline (D-PBS) was added thereto followed by centrifugation at 185 g for 8 minutes to give a crude leukocyte fraction. These cells were subjected to hypotonic hematolysis and then suspended in D-PBS(+) containing 0.1%-BSA. The resulting suspension was used in the subsequent experiment as the leukocyte fraction containing basophils. 0.4 ml of this cell suspension was preliminarily heated to 37° C. for 5 min and then 0.05 ml of a specimen solution was added thereto followed by a pretreatment at 37° C. for 15 min. Next, 0.05 ml of a mite antigen solution was added thereto to induce an antigen-antibody reaction. After 10 min, the reaction was ceased by ice-cooling. Then the reaction mixture was centrifuged at 185 g for 10 min and histamine and peptide leukotrienes in the resulting supernatant were determined by using enzyme immunoassay kits. From the results of the assay, the activities of the acridone derivatives of inhibiting the liberation of histamine and peptide leukotriene were determined.

[1] = histamine, read-out: IC50 (μM) in mediator liberation from human basophils: histamine
[2] = peptide leukotriene, read-out: IC50 (μM) in mediator liberation from human basophils: leukotriene

SMILES	IC50 (RBL-2H3 cells) [µM]	IC50 (human basophils; [1]) [µM]	IC50 (human basophils; [2]) [µM]
Cc1ccc2c(c1C)N(CCCNCc1cccc(C)c1O)c1ccccc1[S+]2[O-] (centres unmarked) [Example 26]	2	< 10	< 10
COc1cccc(CNCCCN2c3ccccc3[S+]([O-])c3ccc(C)c(C)c32)c1O (centres unmarked) [Example 27]	3	30 to 100	10 to 30
Cc1ccc2c(c1C)N(CCCNCc1cccc(OC(C)C)c1O)c1ccccc1[S+]2[O-] (centres unmarked) [Example 28]	0.8	10 to 30	3
Cc1ccc2c(c1C)N(CCCNCc1cccc(Cl)c1O)c1ccccc1[S+]2[O-] (centres unmarked) [Example 29]	0.8	10 to 30	3 to 10
Cc1ccc2c(c1C)N(CCCNCc1cccc(Br)c1O)c1ccccc1[S+]2[O-] (centres unmarked) [Example 30]	2	3 to 10	< 3
Cc1ccc2c(c1C)N(CCCNCc1ccc(O)c(C(=O)O)c1)c1ccccc1[S+]2[O-] (centres unmarked) [Example 32]	0.5	30 to 100	10 to 30
Cc1ccc2c(c1C)N(CCCNCc1cc(O)ccc1O)c1ccccc1[S+]2[O-] (centres unmarked) [Example 33]	1	10 to 30	10
Cc1ccc2c(c1C)N(CCCNCc1cc(Cl)cc(Cl)c1O)c1ccccc1[S+]2[O-] (centres unmarked) [Example 34]	2	3 to 10	3
COCc1cccc(CNCCCN2c3ccccc3[S+]([O-])c3ccc(C)c(C)c32)c1O (centres unmarked) [Example 35]	1	3	3 to 10
Cc1ccc2c(c1C)N(CCCNCc1c(O)cccc1O)c1ccccc1[S+]2[O-] (centres unmarked) [Example 36]	1	3 to 10	3 to 10
Cc1ccc2c(c1C)N(CCCNCc1c(O)ccc(C)c1O)c1ccccc1[S+]2[O-] (centres unmarked) [Example 37]	2	10 to 30	3 to 10
COc1cc(C)c(O)c(CNCCCN2c3ccccc3[S+]([O-])c3ccc(C)c(C)c32)c1O (centres unmarked) [Example 39]	2	10 to 30	10 to 30
Cc1ccc2c(c1C)N(CCCNCc1cccc(F)c1O)c1ccccc1[S+]2[O-] (centres unmarked) [Example 42]	2	3 to 10	< 3
COCOc1ccccc1CNCCCN1c2ccccc2[S+]([O-])c2ccc(C)c(C)c21 (centres unmarked) [Example 44]	1	10 to 30	10
COc1cccc(OC)c1CNCCCN1c2ccccc2[S+]([O-])c2ccc(C)c(C)c21 (centres unmarked) [Example 45]	1	3 to 10	3
Cc1ccc2c(c1C)N(CCCNCc1ccccc1OCCO)c1ccccc1[S+]2[O-] (centres unmarked) [Example 46]	0.5	10 to 30	10 to 30
COCOc1c(CNCCCN2c3ccccc3[S+]([O-])c3ccc(C)c(C)c32)cccc1OC(C)C (centres unmarked) [Example 47]	0.5	3 to 10	3
COCOc1c(Cl)cccc1CNCCCN1c2ccccc2[S+]([O-])c2ccc(C)c(C)c21 (centres unmarked) [Example 48]	0.3	3 to 10	3
Cc1ccc2c(c1C)N(CCCNCc1cccc(N(C)C)c1)c1ccccc1[S+]2[O-] (centres unmarked) [Example 49]	2	10	3 to 10
Cc1ccc2c(c1C)N(CCCNCc1ccccc1N(C)C)c1ccccc1[S+]2[O-] (centres unmarked) [Example 50]	2	30	10 to 30
Cc1ccc2c(c1C)N(CCCNCc1ccccc1N)c1ccccc1[S+]2[O-] (centres unmarked) [Example 51]	2	10 to 30	10 to 30
Cc1ccc2c(c1C)N(CCCNCc1ccc3c(c1)OCCO3)c1ccccc1[S+]2[O-] (centres unmarked) [Example 53]	0.8	30 to 100	10 to 30
Cc1ccc2c(c1C)N(CCCNCc1cccc3c1OCO3)c1ccccc1[S+]2[O-] (centres unmarked) [Example 54]	1	10	3 to 10
Cc1ccc2c(c1C)N(CCCNCc1ccc(C#N)s1)c1ccccc1[S+]2[O-] (centres unmarked) [Example 58]	2	10 to 30	10 to 30
Cc1ccc2c(c1C)N(CCCNCc1ccco1)c1ccccc1[S+]2[O-] (centres unmarked) [Example 62]	3	10	3
COc1ccc(CNCCCN2c3ccccc3[S+]([O-])c3ccc(C)c(C)c32)o1 (centres unmarked) [Example 64]	3	3 to 10	3

SMILES	IC50 (RBL-2H3 cells) [µM]	IC50 (human basophils; [1]) [µM]	IC50 (human basophils; [2]) [µM]
Cc1ccc2c(c1C)N(CCCNCc1ccc(CO)o1)c1ccccc1[S+]2[O-] (centres unmarked) [Example 65]	0.5	30 to 100	10 to 30
COc1ccsc1CNCCCN1c2ccccc2[S+]([O-])c2ccc(C)c(C)c21 (centres unmarked) [Example 66]	0.5	< 3	< 3
COc1ccc(CNCCCN2c3ccccc3[S+]([O-])c3ccc(C)c(C)c32)s1 (centres unmarked) [Example 67]	1	10 to 30	10 to 30
Cc1ccc2c(c1C)N(CCCNCc1[nH]cnc1-c1ccccc1)c1ccccc1[S+]2[O-] (centres unmarked) [Example 69]	1	10	3 to 10
COc1csc(CNCCCN2c3ccccc3[S+]([O-])c3ccc(C)c(C)c32)c1 (centres unmarked) [Example 73]	2	3 to 10	3 to 10
Cc1ccc2c(c1C)N(CCCNCc1ccccc1)c1ccc(Cl)cc1[S+]2[O-] (centres unmarked) [Example 80]	1	10	3 to 10
COc1ccsc1CNCCCN1c2ccc(Cl)cc2[S+]([O-])c2ccc(C)c(C)c21 (centres unmarked) [Example 81]	1	10 to 30	3 to 10
Cc1ccc2c(c1C)N(CCCNCc1ccccc1)c1cccc(Cl)c1[S+]2[O-] (centres unmarked) [Example 82]	2	3 to 10	10 to 30
COc1ccsc1CNCCCN1c2cccc(Cl)c2[S+]([O-])c2ccc(C)c(C)c21 (centres unmarked) [Example 83]	2	10	10 to 30
Cc1ccc2c(c1C)N(CCCNCc1ccccc1)c1cc(Cl)ccc1[S+]2[O-] (centres unmarked) [Example 84]	2	< 3	< 3
COc1ccsc1CNCCCN1c2cc(Cl)ccc2[S+]([O-])c2ccc(C)c(C)c21 (centres unmarked) [Example 85]	3	3	10 to 30
Cc1ccc2c(c1C)N(CCCNCCc1ccccc1)c1ccc(F)cc1[S+]2[O-] (centres unmarked) [Example 86]	1	10 to 30	10
COc1ccsc1CNCCCN1c2ccc(F)cc2[S+]([O-])c2ccc(C)c(C)c21 (centres unmarked) [Example 87]	3	3 to 10	3 to 10
Cc1ccc2c(c1C)N(CCCNCc1ccccc1)c1cc(C#N)ccc1[S+]2[O-] (centres unmarked) [Example 90]	3	30 to 100	10 to 30
Cc1cc(C)c2c(c1C)N(CCCNCc1ccccc1)c1ccccc1[S+]2[O-] (centres unmarked) [Example 100]	2	3	10
Cc1ccc2c(c1C)N(CCCNC(C)c1ccccc1O)c1ccccc1[S+]2[O-] (centres unmarked) [Example 102]	1	30	10 to 30
Cc1ccc2c(c1C)N(CCCN1CCc3ccccc3C1)c1ccccc1[S+]2[O-] (centres unmarked) [Example 108]	2	30	10 to 30
Cc1ccc2c(c1C)N(CCCNCCOc1ccccc1)c1ccccc1[S+]2[O-] (centres unmarked) [Example 113]	3	10	< 10
Cc1ccc2c(c1C)N(CCCN1CCN(Cc3ccccc3O)CC1)c1ccccc1[S+]2[O-] (centres unmarked) [Example 114]	2	30 to 100	10
Cc1ccc2c(c1C)N(Cc1cccc(CN3CCN(Cc4ccccc4)CC3)n1)c1ccccc1[S+]2[O-] (centres unmarked) [Example 122]	3	10 to 30	< 10
Cc1ccc2c(c1C)N(CCCN(CCN(C)C)Cc1ccccc1)c1ccccc1[S+]2[O-] (centres unmarked) [Example 125]	2	< 10	< 10
Cc1ccc2c(c1C)N(CCCNC(CO)c1ccccc1)c1ccccc1[S+]2[O-] (centres unmarked) [Example 128]	1		10 to 30
CCOC(=O)CN(CCCN1c2ccccc2[S+]([O-])c2ccc(C)c(C)c21)Cc1ccccc1O (centres unmarked) [Example 134]	3	3	3
Cc1ccc2c(c1C)N(CCCN(Cc1ccccc1O)CC(O)CO)c1ccccc1[S+]2[O-] (centres unmarked) [Example 137]	1	10 to 30	3
Cc1ccc2c(c1C)N(CCCCNCc1ccccc1O)c1ccccc1[S+]2[O-] (centres unmarked) [Example 140]	3	10	3 to 10
